Experimental findings from patent publication US11236068B2, “Fused ring compounds” (Genentech, Inc., priority 2018, dated 2022) are described below.

The term EC50 denotes the concentration giving half of the maximal effect. A low value points to an effect from little substance.

Sequence of K-Ras G12C (P01116 other isoform, or with tags, fused parts or gaps G12C): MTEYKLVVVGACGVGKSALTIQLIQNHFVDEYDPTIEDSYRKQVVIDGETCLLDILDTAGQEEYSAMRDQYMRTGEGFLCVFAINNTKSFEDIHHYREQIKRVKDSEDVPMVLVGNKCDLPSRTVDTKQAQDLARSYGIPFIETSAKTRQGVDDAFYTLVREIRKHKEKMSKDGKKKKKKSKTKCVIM

For the test, the target named is K-Ras G12C (Homo sapiens (Human), UniProt P01116, G12C). Briefly: Western blot assay for in cell alkylation of K-Ras G12C (HCC1171 cells). It is filed as cell-based. The following applies: 18 hours at 37° C., 7 point dose response. How it is done:
HCC1171 cells were maintained in RPMI1640 supplemented with 10% FBS. Cells were plated in a 96-well plate at 20,000 cells/well and the following day compounds were added to the cells. After 18 hours at 37° C., cells were lysed in RIPA buffer (Sigma RO278) with 0.5% SDS and protease/phosphatase inhibitor cocktail. After through mixing to enable complete lysis, the lysates were cleared by centrifugation before 20 µl was transferred from each well and combined with loading buffer and reducing agent. After heating for 10 minutes at 95° C., […] of each sample was loaded onto a 4-20% Tris-Glycine gel and electrophoresed at 110V for 165 minutes in SDS-PAGE running buffer. Gels were transferred to a nitrocellulose membrane, blocked for 1 hour and stained overnight at 4° C. with primary antibody against K-Ras (polyclonal Proteintech 12063-1-AP). The membrane was then washed thoroughly and counterstained with anti-rabbit IRDye 800CW (LI-COR 926-32211) for one hour at room temperature. After final washes, the membrane was imaged on a LI-COR Odyssey CLx at medium resolution. […] To quantify this affect, the LICOR software was used to draw a rectangle over alkylated and unalkylated bands for each well and measured the total fluorescent intensity (FI) in each of these bands. The following formula was then used to calculate % alkylation: FI(alkylated)/(FI(alkylated)+FI(unalkylated))*100 for each well.
A 7 point dose response curve was used to determine the IC50 for each compound. Cell alkylation data are presented below in Table 3.
Turning to `C=CC(=O)N1CCN(c2ncnc3cc(-c4nc(N)cc5ccccc45)c(Cl)cc23)CC1` [Example 1, 1-[4-[7-(3-amino-1-isoquinolyl)-6-chloro-quinazolin-4-yl]piperazin-1-yl]prop-2-en-1-one], the EC50 stood at 0.56 µM.

As to `C=CC(=O)N1CCN(c2ncnc3cc(-c4ncccc4C)c(Cl)cc23)CC1` [Example 2, 1-[4-[6-chloro-7-(3-methyl-2-pyridyl)quinazolin-4-yl]piperazin-1-yl]prop-2-en-1-one], the EC50 was determined as 16 µM.

Compound `C=CC(=O)N1CCN(c2ncnc3cc(-c4nc(N)cc5cccnc45)c(Cl)cc23)CC1` [Example 3, 1-[4-[7-(6-amino-1,7-naphthyridin-8-yl)-6-chloro-quinazolin-4-yl]piperazin-1-yl]prop-2-en-1-one] registered a concentration for a half-maximal effect (EC50) of 21 µM.

Take `C=CC(=O)N1CCN(c2ncnc3cc(-c4nc(N)cc5cnccc45)c(Cl)cc23)CC1` [Example 4, 1-[4-[7-(3-amino-2,6-naphthyridin-1-yl)-6-chloro-quinazolin-4-yl]piperazin-1-yl]prop-2-en-1-one]: the EC50 was more than 30 µM.

`C=CC(=O)N1CCN(c2ncnc3cc(-c4nc(N)cc5c(Cl)cccc45)c(Cl)cc23)CC1` [Example 5, 1-[4-[7-(3-amino-5-chloro-1-isoquinolyl)-6-chloro-quinazolin-4-yl]piperazin-1-yl]prop-2-en-1-one] had an EC50 of 2.8 µM.

`C=CC(=O)N1CCN(c2ncnc3cc(-c4nc(N)cc5cc(OC)ccc45)c(Cl)cc23)CC1` [Example 6, 1-[4-[7-(3-amino-6-methoxy-1-isoquinolyl)-6-chloro-quinazolin-4-yl]piperazin-1-yl]prop-2-en-1-one]: the concentration for a half-maximal effect (EC50) was 10 µM.

Take `C=CC(=O)N1CCN(c2ncnc3cc(-c4nc(N)cc(C)c4F)c(Cl)cc23)CC1` [Example 11, 1-(4-(7-(6-amino-3-fluoro-4-methylpyridin-2-yl)-6-chloroquinazolin-4-yl)piperazin-1-yl)prop-2-en-1-one]: the concentration giving a half-maximal response (EC50) turned out to be 4.7 µM.

The compound `C=CC(=O)N1CCN(c2nc(NC[C@@H](F)C(C)(C)O)nc3cc(-c4nc(N)cc(C)c4F)c(Cl)cc23)CC1` [Example 12, (R)-1-(4-(7-(6-amino-3-fluoro-4-methylpyridin-2-yl)-6-chloro-2-((2-fluoro-3-hydroxy-3-methylbutyl)amino)quinazolin-4-yl)piperazin-1-yl)prop-2-en-1-one] returned an EC50 of 8.1 µM.

Consider `C=CC(=O)N1CCN(c2ncnc3cc(-c4nc(N)cc(C)c4C)c(Cl)cc23)CC1` [Example 13, 1-(4-(7-(6-amino-3,4-dimethylpyridin-2-yl)-6-chloroquinazolin-4-yl)piperazin-1-yl)prop-2-en-1-one], for which the 50% effective concentration (EC50) worked out at 1.3 µM.

On to `C=CC(=O)N1CCN(c2ncnc3cc(-c4nc(N)cc(C)c4Cl)c(Cl)cc23)CC1` [Example 14, 1-(4-(7-(6-amino-3-chloro-4-methylpyridin-2-yl)-6-chloroquinazolin-4-yl)piperazin-1-yl)prop-2-en-1-one], for which the EC50 is 0.4 µM.

Consider `C=CC(=O)N1CCN(c2ncnc3cc(-c4nc(N)ccc4C)c(Cl)cc23)CC1` [Example 15, 1-(4-(7-(6-amino-3-methylpyridin-2-yl)-6-chloroquinazolin-4-yl)piperazin-1-yl)prop-2-en-1-one], for which the 50% effective concentration (EC50) was 2.8 µM.

For the compound `C=CC(=O)N1CCN(c2ncnc3cc(-c4nc(NC(C)=O)ccc4C)c(Cl)cc23)CC1` [Example 16, N-(6-[6-chloro-4-[4-(prop-2-enoyl)piperazin-1-yl]quinazolin-7-yl]-5-methylpyridin-2-yl)acetamide], a half-maximal response (EC50) required 8.2 µM.

The compound `C=CC(=O)N1CCN(c2ncnc3cc(-c4nc(N)ccc4C(F)(F)F)c(N4CCC4)cc23)CC1` [Example 20, 1-[4-[7-[6-amino-3-(trifluoromethyl)-2-pyridyl]-6-(azetidin-1-yl)quinazolin-4-yl]piperazin-1-yl]prop-2-en-1-one] registered an EC50 of 2.3 µM.
